Laboratory results published in patent US20240287104A1, “NUCLIDE LABELLED H-TETRAZINES AND USE THEREOF FOR PET AND SPECT PRETARGETED IMAGING AND RADIONUCLIDE THERAPY” (RIGSHOSPITALET, priority 2020, published 2024).

Experiments:
[1] = Second-order rate constants by stopped-flow spectrophotometry, unsubstituted TCO in 1,4-dioxane at 25° C.; format: physicochemical; settings: value of the Tz-scaffold: representative tetrazine with unsubstituted TCO, n ≥ 4
Method: Reaction kinetics of the Tz-derivatives were determined by pseudo-first order measurements in dioxane at 25.0±0.1° C. or PBS at 27.0±0.1° ° C. in a SX20 stopped flow photometer (Applied Photophysics). The pseudo first order rate constant was determined by linearization of the decay curve followed by linear fitting. The second order rate constant was calculated from the pseudo-first order rate constant.
A structurally diverse library of 45 Tz-derivatives was prepared (FIG. 15), covering a wide spectrum of physicochemical properties, in particular calculated TPSAs between 60-350 Å2 and different lipophilicities, with calculated log D7.4 values (c log D7.4) ranging from approximately −7.0 to 2.5 (Table 5). […] The distribution coefficient at physiological pH (log D7.4) and TPSA were calculated using the software Chemicalize. Tetrazines conjugated to DOTA were calculated with chelated trivalent cations, Tzs with other chelators with bivalent cations. Second-order rate constants for the Tz scaffolds A-L were determined by stopped-flow spectrophotometry (n≥4), monitoring the reaction of representative tetrazines with unsubstituted trans-cyclooctene (TCO) at 25° C. in 1,4-dioxane, and with TCO-PEG4 (modified TCO-5ax-OH, ‘minor-TCO’) in Dulbecco's phosphate buffered saline (DBPS) at 37° C. n≥3.

[2] = Second-order rate constants by stopped-flow spectrophotometry, TCO-PEG4 in DPBS at 37° C.; format: physicochemical; settings: value of the Tz-scaffold: representative tetrazine with TCO-PEG4, n ≥ 4
Method: A structurally diverse library of 45 Tz-derivatives was prepared (FIG. 15), covering a wide spectrum of physicochemical properties, in particular calculated TPSAs between 60-350 Å2 and different lipophilicities, with calculated log D7.4 values (c log D7.4) ranging from approximately −7.0 to 2.5 (Table 5). The Tz-scaffolds (A-L) include mono- and disubstituted methyl-, phenyl-, 2-pyrimidyl-, and 2-pyridyl-substituted Tz-derivatives with second-order rate constants for the reaction with TCO ranging from 1.4 to 230 M^−1 s^−1 in 1,4-dioxane at 25° C., and from 1,100 to 73,000 M^−1 s^−1 in buffered aqueous solution at 37° C. […] Several compounds were obtained as copper(II) complexes (for details see the Supporting Information), which was taken into account in the calculation of c log D7.4 and TPSA. The distribution coefficient at physiological pH (log D7.4) and TPSA were calculated using the software Chemicalize. Tetrazines conjugated to DOTA were calculated with chelated trivalent cations, Tzs with other chelators with bivalent cations. Second-order rate constants for the Tz scaffolds A-L were determined by stopped-flow spectrophotometry (n≥4), monitoring the reaction of representative tetrazines with unsubstituted trans-cyclooctene (TCO) at 25° C. in 1,4-dioxane, and with TCO-PEG4 (modified TCO-5ax-OH, ‘minor-TCO’) in Dulbecco's phosphate buffered saline (DBPS) at 37° C. n≥3.

[3] = tested on: CC49-TCO pretargeted LS174T colon carcinoma xenografts; assay: Pretargeted blocking assay with [111In]Q (Example 140); format: in vivo, BALB/c mice; settings: for Blocking effect: unlabeled Tz i.v. 72 h after CC49-TCO and 1 h before [111In]Q, change in tumor uptake 22 h p.i., normalized to unblocked group
Method: All animal studies were approved by the Danish Animal Welfare Council, ministry of Justice. Five weeks old female nude BALB/c mice (Charles River, Sulzfeld, Germany) were allowed to acclimatize for one week with access to water and chow ad libitum. Human colon cancer cell line (LS174T; obtained from ATCC) was cultured in minimum essential medium (MEM) supplemented with 10% fetal bovine serum, 1% L-Glutamine, 1% Sodium pyruvate, 1% non-essential amino acids, and 1% penicillin-streptomycin at 37° C. and 5% CO2. Cells were harvested by trypsination at a confluence of 70-90% and subcutaneous tumors were established in the left flank of the 6 weeks old animals by inoculation of ˜5×10^6 LS174T cells resuspended in sterile PBS (100 μL) and allowed to grow for 7-10 days. Tumors were measured using a caliper and the volume calculated using the formula volume=½(length×width^2).
The assay was inspired by receptor blocking experiments and based on the pretargeted imaging approach reported by Rossin et al. An ^111In-labeled Tz [^111In]Q was used in pair with TCO-modified CC49, a non-internalizing mAb that targets the tumor-associated glycoprotein 72 (TAG72), as a benchmark model for the in vivo ligation.
The TCO-modification of CC49 was carried out according to Rossin et al. To study the in vivo ligation performance of Tz-derivatives 1a-45a, BALB/c mice bearing LS174T colon carcinoma xenografts were injected intravenously (i.v.) with CC49-TCO 72 h prior to i.v. injection of the unlabeled Tz, followed by administration of [^111In]Q 1 h later. The animals were euthanized after 22 h and an ex vivo biodistribution was carried out to quantify the tumor uptake of [111 In]Q (FIG. 15). The efficiency of the in vivo ligation of the unlabeled Tz can thus be correlated to a reduced uptake of [111 In]Q (FIG. 15). As a control, blocking was performed using the non-radioactive precursor of [^111In]Q, which blocked ≥99% of the [^111In]Q tumor uptake. A group of CC49-TCO pretreated mice were injected exclusively with [^111In]Q (without blocking) and the determined uptake was used as reference value (100%) to normalize the observed changes in tumor uptake in blocking experiments.
All of these probes include H-phenyl-, pyrimidyl-phenyl-, or bis(pyridyl)-Tz-scaffolds with second-order rate constants for the reaction with TCO of >70 M 1 s 1 (1,4-dioxane, 25° C.) or of >39,000 M 1 s 1 (DPBS, 37° C.) (cf. Table 5). Next, potential correlations between the blocking effect, the c log D7.4 and the TPSA, as well as IEDDA reactivity were investigated. […] However, a distinct relationship between c log D7.4 values and the blocking effect was evidently observed when comparing Tz-derivatives with similar IEDDA reactivity (FIG. 16C, 16D). For all Tz-scaffolds a Pearson's correlation coefficient >0.78 was found. […] The blocking effect of non-radiolabeled Tz was determined as the change in tumor uptake of [111 In]Q 22 h p.i. Each Tz was administered 1 h prior to [111 In]Q and the uptake normalized to a group of animals were no blocking was performed (control). Data represent mean from n=3 mice/group. Correlation of blocking effect and c log D7.4 for Tz-derivatives with similar IEDDA reactivity (as shown in FIGS. 16C and D) where data was fitted to exponential growth equation Y=Y0 ekx (dotted line). The statistical analysis of the correlation between tumor uptake and c log D7.4 for the different groups of Tz-derivatives (shown in Table 7) was obtained by Pearson's correlation coefficient (r) which describes the goodness of fit between the blocking effect and c log D7.4. Notes: a Reaction of representative Tz with unsubstituted TCO; “Reaction of representative Tz with TCO-PEG4;” Measured for Tz-scaffold A only; n.d.=not determined.

[4] = tested on: CC49-TCO pretargeted LS174T tumor xenografts; assay: Blocking experiments with [111In]Q (Example 126, FIG. 3); format: in vivo, nude BALB/c mice; settings: FIG. 3, cold 19F-Tz 2 h before [111In]Q
Method: In this respect, we designed two highly reactive Tzs, which allowed ^18F-labeling and respective introduction of polar groups (FIG. 4-8). UB137 and UB108 were synthesized in sufficient yields via a Pinner-like synthesis as described in Example 97 and 106 and their ability to be used in pretargeted imaging were evaluated. The results were compared with the performance of compounds UB-65 and RGV-52 (FIG. 3). Efficiency in vivo was tested in an ex vivo screening assay lately published by our group and is inspired by traditional receptor blocking studies. In short, tumour-bearing mice are injected with a validated TCO-modified pretargeting vector 72 h before a test ^19F-Tz is administered. Subsequently after 2 hours, a pretargeted established ^111In-DOTA-Tz (Q)[6] is administered to the same mouse. […] In this manner, the blocking ability of the cold ^19F-Tz can be evaluated. […]
All animal studies were approved by the Danish Animal Welfare Council, ministry of Justice. […] Tumors were measured using a caliper and the volume calculated using the formula volume=½(length×width^2).
These blocking experiments were made using the method described in Example 125. […] All tissues were weighted and the radioactivity measured in a gamma counter (Wizard2, Perkin Elmer) and data was corrected for decay, tissue weight and injected amount of radioactivity. […]

[5] = Stability in phosphate-buffered saline (PBS) by analytical HPLC; format: physicochemical; settings: 12 h at 37° C.; for Stability in PBS (degradation): analytical HPLC
Method: The in vitro stability of UB108 and UB137 was assessed by analytical HPLC in Phosphate-buffered saline (PBS), Example 13 for UB108. […] Consequently, the organotin precursors were synthesized with an unoptimized synthetic strategy (FIG. 6, Examples 101 and 110). Radiolabeling succeeded in a one-pot, two step sequence with a RCY (d.c.) of approx. 10% and an overall synthesis time of ca. 90 minutes including synthesis, separation and formulation steps. An activity yield of 636 MBq starting from 11 GBq fluoride-18, and RCP of 98% at EOS was observed (FIGS. 6 and 11). UB137 could be labeled with similar results (FIGS. 6 and 7). The tetrazine ligation of ^18F-UB108 with s-TCO occurred rapidly, forming ligation products after click reaction (FIG. 11). Stability evaluation was completed for the formulated compound ^18F-UB108 in PBS at room temperature. […] UB137 could be labeled with similar results.
The shelf stability of UB-108 was assessed in phosphate-buffered saline (PBS) by analytical-HPLC. […] Consequently, the stannane precursor was synthesized in 4 steps (example 98-101 Radiolabeling succeeded in a one-pot, two-step sequence with a RCY (d.c.) of 11±3% (n=4) and an overall synthesis time of ca. 90 minutes including synthesis, separation and formulation. [^18F]-UB108 was obtained with an Am of 134±22 GBq/μmol (d.c.), a RCP of ≥99% (n=4) and an activity yield of 600-700 MBq (EOS) starting from ˜12 GBq fluoride-18. [^18F]-UB108 was stable in PBS at room temperature for minimum 4 h and rapidly reacted with TCO-PNP carbonate (23) as confirmed by radio-HPLC. Residual amounts of Cu and Sn in the final formulated solution were analyzed by ICP-MS and found to be well below the allowed limits specified in the ICH Guidelines (41-60 and 2.3-3.0 μg/L vs. 300 and 600 μg/day, respectively).

Row | Structure (SMILES) | Rate constant (1,4-dioxane, 25° C.) [1] [M⁻¹ s⁻¹] | Rate constant (DPBS, 37° C.) [2] | % Tumor Uptake of [^111In]46 after blocking ([3]; tumor uptake 22 h p.i. normalized to unblocked group (100%)) [%] | Blocking effect [3] [%] | Blocking effect ([3]; listed as non-radioactive precursor of [^111In]Q) [%] | Blocking effect (ranking) [4] | Shelf stability in PBS, intact ([5]; 2 nmol/mL) [%] | Stability in PBS (degradation) [5]
1 | O=C(O)CN1CCN(CC(=O)O)CCN(CC(=O)NCCOCCOCCOCCOCCOCCOCCOCCOCCOCCOCCOCCNC(=O)CCCC(=O)Nc2ccc(-c3nnc(-c4ccccn4)nn3)nc2)CCN(CC(=O)O)CC1 [Q, reference compound] | 230 | 73,000 M^−1 s^−1 | 1 | 99 | ≥ 99 | – | – | –
2 | O=C(O)CN(CC(=O)O)Cc1cc(F)cc(-c2nncnn2)c1 [UB-108, 1-Carboxy-N-(carboxymethyl)-N-(3-fluoro-5-(1,2,4,5-tetrazin-3-yl)benzyl)methanaminium 2,2,2-trifluoroacetate] | – | – | – | – | – | best blocking effect | 98 | did not show degradation
3 | O=C(O)CNCc1cc(F)cc(-c2nncnn2)c1 [UB-137, 1-Carboxy-N-(3-fluoro-5-(1,2,4,5-tetrazin-3-yl)benzyl)methanaminium 2,2,2-trifluoroacetate] | – | – | – | – | – | best blocking effect | – | did not show degradation
